According to publication PMC8121805, “Discovery of first-in-class inhibitors of ASH1L histone methyltransferase with anti-leukemic activity” (Nature Communications, 2021):
Several values for one entry are separate records, joined by “and”; a condition that tells them apart may be missing. Equal entries are not always repeated.

Experiments:
Format in all cases: cell-based, human
K562 cells = experiment: MTT cell viability assay
Description: (§1) Human leukemia cells K562, MV4;11 and RS4;11 (purchased from ATCC) and KOPN8, MOLM13 (purchased from DSMZ) were cultured in RPMI 1640 (Invitrogen) supplemented with 10% heat inactivated (h.i.) FBS and 1% penicillin/streptomycin (Invitrogen). SET2 cells (purchased from DSMZ) were cultured in RPMI 1640 supplemented with 20% h.i. FBS and 1% penicillin/streptomycin. Cells were plated at 1 × 10^5 to 2 × 10^5 cells/mL depending on cell line and treated with 0.25% DMSO or varying concentrations of compounds and incubated at 37 °C, 5% CO2 incubator for 7 days. Media was changed on day 3 or 4 and compounds were resupplied. […] Cell suspensions (100 μL) were transferred to the 96-well plates for each sample in quadruplicate at the time of media change. At day 7, 10 µL of MTT reagent (M6494, Molecular Probes™) was added to each well of the 96 well plate and incubated at 37 °C for 4 h. The formazan was then solubilized by adding 100 µL acidified 10% SDS solution and incubated at 37 °C overnight. Plates were read for absorbance at 570 nm using a PHERAstar BMG microplate reader. The experiments were performed two times in quadruplicates with calculation of mean and SD for each condition. Data were analyzed in Prism 8.0.0 to obtain GI50 values.
(§2) Supplementary Figure 7. […] (a)
(§3) Titration curves from the MTT cell viability assay performed after 4, 7, and 11 (or 10) days of
(§4) Titration curves from the MTT cell viability assay performed after 7 days of treatment of KOPN8 ,
(§5) MOLM13 and MV4;11 cell lines harboring MLL1 translocation (MLL1-r) or K562 cell line (non-
(§6) Representative graphs are shown
(§7) from two independent MTT experiments performed for each cell line. GI50 values correspond to […]

KOPN8 cells [1] = experiment: MTT cell viability assay; settings: MTT, 7 days
Description: as §1, §2, §3, §4, §5, §6, §7

RS4;11 cells = experiment: MTT cell viability assay; settings: 7 days
Description: as §1

SET2 cells = experiment: MTT cell viability assay
Description: as §1

KOPN8 cells [2] = experiment: Flow cytometry of CD11B expression (differentiation); settings: 7 days
Description: (§8) In addition, 1 × 10^5 cells per sample were stained with Zombie Aqua™ dye (1:100 dilution) for 15 min using the Zombie Aqua™ Fixable Viability Kit (Zombie Aqua™ Fixable Viability Kit, Biolegend®) […] and then for 30 min with an anti-CD11B-PE antibody (982606, ICRF44, Biolegend®) or anti-CD11B-Pacific Blue (101224, BD BioLegend) antibody at 1:50 dilution, according to the No-wash Sequential Staining Protocol described by the manufacturer (BioLegend, Zombie Aqua Fixable Viability Kit). Cells were washed twice with 500 µL PBS containing 1% FBS and resuspended in 200 µL PBS with 1% FBS.

MV4;11 cells = experiment: as above; settings: for MV4;11 % CD11B+ cells: 7 days
Description: as §8

[3] = test system: MLL fusion target genes in MOLM13 cells; experiment: Real time qRT-PCR gene expression; design: key to MEIS1 expression / FLT3 expression / HOXA9 expression / MNDA expression / MEF2C expression / DLX2 expression: fold change vs DMSO-treated cells, normalized to HPRT1 (comparative Ct); settings: for DLX2 expression / FLT3 expression / HOXA9 expression / MEF2C expression / MEIS1 expression / MNDA expression: MOLM13, 7 days, normalized to HPRT1, referenced to DMSO
Description: 0.5 × 10^6 – 3 × 10^6 cells from each sample were collected at days 7 or 8 of treatment, centrifuged at 211 xg, and RNA was extracted according to the RNeasy Mini Kit protocol (74106, Qiagen). Extracted RNA was quantified using Nanodrop 2000 UV-Vis spectrophotometer and 0.5–1 µg of total RNA was reverse transcribed into cDNA using High-Capacity cDNA Reverse Transcription Kit (4368814, Applied Biosystems™) according to the manufacturer’s protocol. Real-time PCR was performed using the CFX96 Touch Real-Time PCR Detection System (Bio-Rad). TaqMan Gene Expression Master Mix and TaqMan Gene Expression Assays were purchased from Applied Biosystems. Relative quantification of each gene transcript was carried out using the comparative Ct method as described in the Applied Biosystems User Bulletin no. 2. TaqMan Gene Expression Assays were used: HPRT1: Hs02800695_m1, DLX2: Hs00269993_m1, FLT3: Hs00174690_m1, HOXA9: Hs00365956_m1, MEF2C: Hs00231149_m1, MEIS1: Hs00180020_m1, MNDA: Hs00935905_m1.
Supplementary Figure 10. Effect of AS-nc on gene expression in MLL leukemia cells. (a, b) Quantitative RT-PCR performed in MOLM13 cells (a) or MV4;11 cells (b) after 7 days of treatment with AS-nc. Gene expression was normalized to HPRT1 and referenced to the DMSO treated cells. Representative data from two independent experiments, each performed in triplicates, […]

[4] = MTT, 7 days, log[compound] -4.92082
[5] = MTT, 7 days, log[compound] -5.22185
[6] = MTT, 7 days, log[compound] -5.52288
[7] = MTT, 7 days, log[compound] -5.82391
[8] = MTT, 7 days, log[compound] -6.12494
[9] = MTT, 7 days, log[compound] -6.42597
[10] = MTT, 7 days, log[compound] -6.727
[11] = leukemia cells without MLL1 translocations

Structure (SMILES): CN1CC(C(=O)NCc2ccc3c(-c4cccc(C(N)=S)c4)cn(C4CCN(S(=O)(=O)C(F)(F)F)CC4)c3c2)C1 [AS-99]
- GI50 (K562 cells; Homo sapiens, 168 h, K562 (non MLL1-r), MTT, 7 days): ~10 µM
- % activity K562 (K562 cells; [4]): 34.51% and 35.23% and 31.55% and 35.55%
- % activity K562 (K562 cells; [5]): 83.83% and 82.23% and 83.51% and 86.83%
- % activity K562 (K562 cells; [6]): 95.95% and 103.51% and 103.55% and 93.67%
- % activity K562 (K562 cells; [7]): 96.63% and 103.59% and 103.23% and 96.55%
- % activity K562 (K562 cells; [8]): 84.15% and 92.83% and 97.87% and 96.55%
- % activity K562 (K562 cells; [9]): 86.31% and 85.15% and 89.55% and 92.55%
- % activity K562 (K562 cells; [10]): 85.67% and 82.35% and 87.23% and 83.91%
- effect on growth/proliferation of K562 cells (K562 cells; [11]): no or limited effects at 10 µM or higher concentrations
- GI50 (KOPN8 cells [1]; Homo sapiens, KOPN-8, 168 h, KOPN8 (MLL1-r)): 2900 ± 300 nM
- % activity KOPN-8 (KOPN8 cells [1]; log[compound] -4.92082): 5.251% and 4.98% (2×) and 5.115%
- % activity KOPN-8 (KOPN8 cells [1]; log[compound] -5.22185): 1.863% and 1.728% and 2.134%
- % activity KOPN-8 (KOPN8 cells [1]; log[compound] -5.52288): 50.2371% and 54.1667% and 51.0501% and 53.0827%
- % activity KOPN-8 (KOPN8 cells [1]; log[compound] -5.82391): 80.5894% and 71.1043% and 76.5244% and 75.7114%
- % activity KOPN-8 (KOPN8 cells [1]; log[compound] -6.12494): 90.8875% and 88.855% and 90.6165% and 83.977%
- % activity KOPN-8 (KOPN8 cells [1]; log[compound] -6.42597): 97.1206% and 99.8306% and 104.844% and 96.4431%
- % activity KOPN-8 (KOPN8 cells [1]; log[compound] -6.727): 96.0366% and 101.457% and 104.844% and 97.6626%
- % activity RS4;11 (RS4;11 cells; log[compound] -4.92082): 2.655% and 2.343% and 2.187%
- % activity RS4;11 (RS4;11 cells; log[compound] -5.22185): 2.03% and 1.718% and 1.874% and 2.655%
- % activity RS4;11 (RS4;11 cells; log[compound] -5.52288): 64.3499% and 67.786% and 71.3784%
- % activity RS4;11 (RS4;11 cells; log[compound] -5.82391): 99.4924% and 89.8087% and 86.9973% and 90.4334%
- % activity RS4;11 (RS4;11 cells; log[compound] -6.12494): 82.4678% and 84.9668% and 84.4982% and 89.3401%
- % activity RS4;11 (RS4;11 cells; log[compound] -6.42597): 93.2448% and 101.679% and 103.397%
- GI50 (RS4;11 cells; Homo sapiens, 168 h, RS4;11 (MLL1-r)): 3.4 ± 0.1 µM
- GI50 (SET2 cells; Homo sapiens, SET-2, 168 h, SET2 (non MLL1-r), MTT, 7 days): > 12 µM
- % activity SET2 (SET2 cells; [4]): 96.0299% and 95.2049% and 87.6257% and 88.1928%
- % activity SET2 (SET2 cells; [5]): 99.0204% and 97.9376% and 92.5754% and 93.5035%
- % activity SET2 (SET2 cells; [6]): 97.5767% and 104.589% and 99.7938% and 98.0407%
- % activity SET2 (SET2 cells; [7]): 91.6473% and 94.4831% and 88.9662% and 87.9866%
- % activity SET2 (SET2 cells; [8]): 83.7071% and 89.6365% and 81.1807% and 83.8618%
- % activity SET2 (SET2 cells; [9]): 83.5525% and 88.76% and 84.5321% and 85.1508%
- % activity SET2 (SET2 cells; [10]): 86.1304% and 85.9242% and 90.513% and 87.1101%
- effect on proliferation of SET2 cells (SET2 cells; [11]): no or limited effects at 10 µM or higher concentrations
- KOPN8 % CD11B+ cells (KOPN8 cells [2]; 1 uM): 5.69% and 3.82% and 3.42%
- KOPN8 % CD11B+ cells (KOPN8 cells [2]; 2 uM): 7.78% and 8.76% and 7.98%
- KOPN8 % CD11B+ cells (KOPN8 cells [2]; 3 uM): 12.9% and 10.3% and 9.53%
- KOPN8 % CD11B+ cells (KOPN8 cells [2]; 4 uM): 24.5% and 25.6%
- MV4;11 % CD11B+ cells (MV4;11 cells; 3 uM): 3.77% and 4.48% and 6.27%
- MV4;11 % CD11B+ cells (MV4;11 cells; 6 uM): 35.3% and 55.8% and 53.8%
- differentiation in MLL leukemia cells (MV4;11 cells; MV4;11 and KOPN8): induced differentiation
- increased expression of the CD11B differentiation marker (MV4;11 cells; MV4;11 and KOPN8): up to 50%
- DLX2 expression ([3]; 2 uM): 0.56 and 0.75 and 0.61
- FLT3 expression ([3]; 2 uM): 0.69 and 0.97 and 0.78
- HOXA9 expression ([3]; 2 uM): 0.72 and 0.91 and 0.9
- MEF2C expression ([3]; 2 uM): 0.67 and 0.89 and 0.83
- MEIS1 expression ([3]; 2 uM): 0.79 and 0.98 and 0.9
- MNDA expression ([3]; 2 uM): 1.83 and 1.84 and 1.74
- DLX2 expression ([3]; 4 uM): 0.44 and 0.5 and 0.58
- FLT3 expression ([3]; 4 uM): 0.67 and 0.76 and 0.61
- HOXA9 expression ([3]; 4 uM): 0.76 and 0.94 and 0.79
- MEF2C expression ([3]; 4 uM): 0.59 and 0.77 and 0.68
- MEIS1 expression ([3]; 4 uM): 0.89 and 0.77 and 0.75
- MNDA expression ([3]; 4 uM): 2.92 and 2.39 and 3.74
- DLX2 expression ([3]; 6 uM): 0.53 and 0.54 and 0.7
- FLT3 expression ([3]; 6 uM): 0.53 and 0.65 and 0.5
- HOXA9 expression ([3]; 6 uM): 0.69 and 0.9 and 0.7
- MEF2C expression ([3]; 6 uM): 0.48 and 0.65 and 0.64
- MEIS1 expression ([3]; 6 uM): 0.71 and 0.74 and 0.69
- MNDA expression ([3]; 6 uM): 3.99 and 3.93 and 2.86
- expression level of the MNDA differentiation marker ([3]; MOLM13 and MV4;11): substantial increase
- expression of MLL fusion target genes (MEF2C, DLX2, FLT3, HOXA9) ([3]; MOLM13 and MV4;11): dose-dependent downregulation
